The first data set concerns PDE-4. As to the kind of experiment: Phosphodiesterase 4 assay ([3H]cAMP SPA), enzyme preparation from rat heart. The settings on record: PDE-4 activity, dose 10 μg/ml. Type of data set: biochemical. As for the experimental part: FIG. 2. […] To examine whether IICT-TA67 inhibits PDE-4 activity in vitro, enzyme preparations were incubated in the absence or presence of different concentrations (1-20 μg/ml) of IICT-TA67 and breakdown of cAMP was monitored by β counter.
Table 1. Measurement of phosphodiesterase (PDE)-4 activity by compounds.
Heart was excised from anesthetized rat and transfer into normal saline solution. […] The homogenate was centrifuged at 500×g for 5 minute at 4° C. Then sup was taken for further centrifuged at 40,000×g for 30 minute (ultra centrifugation). After centrifugation supernatant was collected for phosphodiesterase assay. Protein concentration was estimated and for each assay, 2.5 μg protein (PDE enzyme preparation) was used.
Phosphodiesterase 4 assay: Phosphodiesterase 4 assay was conducted with [^3H] cAMP SPA enzyme assay (GE Amersham, UK) using 2.5 μg enzyme preparation for each well. Into each well 60 μl water, 10 μl assay buffer supplied with the kit, 10 μl compound (inhibitor), 10 μl PDE enzyme or homogenizing buffer (blank) and 10 μl radiolabel led cAMP ([^3H]cAMP, GE Amersham, UK) were added. To check activity of the enzyme without inhibitor 10 μl DMSO was added in place of inhibitor to a separate well. The reaction mixtures were incubated for 30 mi at 30° C. The reaction was stopped by adding 50 μl SPA bead supplied with the kit. It was then mixed well and allowed to stand at room temperature for 20 min. Breakdown of cAMP in each tube was monitored by β counter. The reading in each tube was obtained in counts per minute (CPM). The reading of the blank tube (without enzyme) was subtracted from each tube to normalize the counts. The enzyme activity was calculated by considering the CPM reading without any inhibitor (compound) as 100.
`COc1ccc(C(c2[nH]c3ccccc3c2CC(=O)O)c2[nH]c3ccccc3c2CC(=O)O)cc1Oc1nc(Nc2ccccc2)nc(Nc2ccccc2)n1` [Compound 8, 2,2′-[2,2′-3-(4,6-bis-anilino)-1,3,5-triazin-2-yl-oxy-4-methoxyphenyl]-methylene-bis-(1H-indole-3,3-diyl)-diacetic acid] yielded an Inhibition % of 73%.

The compound `COc1cc(C(c2cc3ccccc3[nH]2)c2cc3ccccc3[nH]2)ccc1Oc1nc(NC2CC2)nc(NC2CC2)n1` [Compound 1, 2,2′-[2,2′-4-(4,6-bis-cyclopropylamino)-1,3,5-triazin-2-yl-oxy-3-methoxyphenyl]-methylene-bis-1H-indole] had an Inhibition % of 16%.

As to `Clc1nc(Nc2ccccc2)nc(Nc2ccccc2)n1` [Compound 11, 6-Chloro-N^2,N^4-diphenyl-1,3,5-triazine-2,4-diamine], the Inhibition % amounted to 53%.

`COc1ccc(C(c2cc3ccccc3[nH]2)c2cc3ccccc3[nH]2)cc1Oc1nc(Nc2ccccc2)nc(Nc2ccccc2)n1` [Compound 6, 2,2′-[2,2′-3-(4,6-bis-anilino)-1,3,5-triazin-2-yl-oxy-4-methoxyphenyl]-methylene-bis-1H-indole] came in with an Inhibition % of 45%.

In the case of `COc1ccc(C2CNC(=O)C2)cc1OC1CCCC1` (centres unmarked) [Rolipram, reference compound], the Inhibition % was determined as 69%.

Take `COc1cc(C(c2[nH]c3ccccc3c2CC(=O)O)c2[nH]c3ccccc3c2CC(=O)O)ccc1Oc1nc(Nc2ccccc2)nc(Nc2ccccc2)n1` [Compound 4, 2,2′-[2,2′-4-(4,6-bis-anilino)-1,3,5-triazin-2-yl-oxy-3-methoxyphenyl]-methylene-bis-(1H-indole-3,3-diyl)-diacetic acid]: the Inhibition % is recorded as 31%.

Consider `COc1cc(C(c2[nH]c3ccccc3c2CC(=O)O)c2[nH]c3ccccc3c2CC(=O)O)ccc1Oc1nc(NC2CC2)nc(NC2CC2)n1` [Compound 3, 2,2′-[2,2′-4-(4,6-bis-cyclopropylamino)-1,3,5-triazin-2-yl-oxy-3-methoxyphenyl]-methylene-bis-(1H-indole-3,3-diyl)-diacetic acid], for which the Inhibition % turned out to be 42%.

`COc1cc(C(c2cc3ccccc3[nH]2)c2cc3ccccc3[nH]2)ccc1Oc1nc(Nc2ccccc2)nc(Nc2ccccc2)n1` [Compound 2, 2,2′-[2,2′-4-(4,6-bis-anilino)-1,3,5-triazin-2-yl-oxy-3-methoxyphenyl]-methylene-bis-1H-indole]: the Inhibition % amounted to 34%.

`Clc1nc(NC2CC2)nc(NC2CC2)n1` [Compound 10, 6-Chloro-N^2,N^4-dicyclopropyl-1,3,5-triazine-2,4-diamine] displayed an Inhibition % of 44%.

`COc1ccc(C(c2cc3ccccc3[nH]2)c2cc3ccccc3[nH]2)cc1Oc1nc(NC2CC2)nc(NC2CC2)n1` [Compound 5, 2,2′-[2,2′-3-(4,6-bis-cyclopropylamino)-1,3,5-triazin-2-yl-oxy-4-methoxyphenyl]-methylene-bis-1H-indole] came in with an Inhibition % of 34%.

In turn, `COc1cc(C=O)ccc1Oc1nc(NC2CC2)nc(NC2CC2)n1` [Compound 12, 4-[4,6-Bis-cyclopropylamino-1,3,5-triazin-2-yl-oxy]-3-methoxy benzaldehyde] yielded an Inhibition % of 29%.

`COc1cc(C=O)ccc1Oc1nc(Nc2ccccc2)nc(Nc2ccccc2)n1` [Compound 13, 4-[4,6-Bis-anilino-1,3,5-triazin-2-yl-oxy]-3-methoxy benzaldehyde] returned an Inhibition % of 30%.

Test system in the next data set: not listed separately
The data set is described as follows: Pharmacokinetic study, oral and i.v. route. Type of data set: in vivo, swiss mice. The settings on record: mouse, in vivo. As for the experimental part:
FIG. 6. Pharmacokinetics of IICT-TA67 through oral route. FIG. 7. Pharmacokinetics of IICT-TA67 through intravenous (i.v) route in mice. IICT-TA67 (20 mg/kg) was administered orally (or 10 mg/kg by i.v. route) as a fine suspension in 1% Gum acacia. Blood samples were drawn from retro-orbital plexus at designated times in pre-labeled heparinised tubes and centrifuged (3500 rpm×10 minutes) to obtain the plasma. Blood samples were collected at 0, 5, 15 and 30 min, and 1, 2, 4, 6, 8, 16 and 24 hrs post-administration after oral/iv route. HPLC determinations were done on Shimadzu chromatograph (Model: LC-10 Atvp equipped with a diode array detector). The Molecule ICT-TA67 was determined at 276 nm using RP-18 column (5 μm×25 cm). Mobile phase consisted of acetonitrile: water (55:45) with a flow rate of 1.0 ml/min.
Animals. Healthy swiss mice of both the sexes (25-30) were used. The animals were kept (3/cage) under controlled conditions (temp 26±2° C.; relative humidity 50±5%; 12 h light/dark cycle) and maintained on pelleted rodent diet (Ashirwad Industries Ltd. Chandigarh, India). Water was provided ad libitum. Institutional Animal Ethics committee approved the animal experiments. Animals were fasted for 16 hours before use.
Step 1: Dosing: IICT-TA67 (20 mg/kg) was administered orally (or 10 mg/kg by i.v.route) as a fine suspension in 1% Gum acacia. Blood samples were drawn from retro-orbital plexus at designated times in pre-labeled heparinised tubes and centrifuged (3500 rpm×10 minutes) to obtain the plasma. Blood samples were collected at 0, 5, 15 and 30 min, and 1, 2, 4, 6, 8, 16 and 24 hrs post-administration after oral/iv route.
Step 2: HPLC determinations: Aliquots of plasma were mixed with acetonitrile (1:2), vortexed for two minutes (2500 rpm) and centrifuge at 5000 rpm for 10 min. The organic layer was collected and evaporated to dryness using solvent evaporator (Model: SPD 111V, Thermo Electron Corporation, MA). The dried samples were reconstituted in mobile phase for HPLC analysis. In a similar manner samples were also prepared from aliquots of plasma collected from untreated animals which were spiked with molecule 67 (0.25 μg-10 μg/ml). […] Reproducibility of the method was defined by both intra-, and inter-day variance. The retention time of Mol. 67 was 10.688 min, at which no other interfering peak was observed. The lower limit of detection (LOD) was 11 ng/ml; limit of quantitation (LOQ) was 32 ng/ml; recovery was 90±2%.
HPLC determinations were done on Shimadzu chromatograph (Model: LC-10 Atvp equipped with a diode array detector). Molecule 67 was determined at 276 nm using RP-18 column (5 μm×25 cm). Mobile phase consisted of acetonitrile: water (55:45) with a flow rate of 1.0 ml/min.
Step 3: Calculating Bioavailability indices: A concentration-time curve for Molecule 67 was established and pharmacokinetic parameters AUC, Cmax, and tmax were determined by a non-compartmental analysis using TOPFIT software package. Absolute bioavailability was determined using the following formula: AUCoral×doseiv/AUCiv×Doseoral.
Regarding `COc1ccc(C(c2[nH]c3ccccc3c2CC(=O)O)c2[nH]c3ccccc3c2CC(=O)O)cc1Oc1nc(Nc2ccccc2)nc(Nc2ccccc2)n1` [Compound 8, 2,2′-[2,2′-3-(4,6-bis-anilino)-1,3,5-triazin-2-yl-oxy-4-methoxyphenyl]-methylene-bis-(1H-indole-3,3-diyl)-diacetic acid], the “bioavailability and pharmacokinetics” value is “potentially bioavailable with good pharmacokinetics”.

The test system of a further data set is BALB/c 3T3 cell line. As to the kind of experiment: Balb/c 3T3 Neutral Red Uptake (NRU) cytotoxicity assay. It is filed as cell-based. The settings on record: NRU cytotoxicity test (FIG. 8). The text has this: FIG. 8. IICT-TA67 is not toxic. To evaluate the cytotoxicity of test chemical (IICT-TA67) BALB/c 3T3 cell line was used for Neutral Red Uptake (NRU) cytotoxicity test. The test result has been used to determine IC50 for IICT-TA67 and acute oral toxicity (LD50) in rodent was predicted.
Basal cytotoxicity of IICT-TA67 has been performed to measure IC50 and thereafter predict in vivo acute oral LD50 values in rodent by using Halle's Registry of cytotoxicity (RC) prediction model: log (LD50)=0.435×log (IC50)+0.625 (Halle, 1998; Spielmann et al., 1999). Balb/c 3T3 Neutral Red Dye Uptake (NRU) cytotoxicity assay procedure was adopted (Liebsch & Spielmann 1995). In brief 3T3 cell were grown in 96 well microtitre plates and exposed to IICT-TA-67. After 48-hour incubation, the test material was removed and Neutral red (NR) solution was applied to the cells. The cells were incubated again, the excess NR solution was removed and finally NR was eluted from the cells. The NRU was determined by using a microtitre plate reader to measure the optical density at 540 nm of the eluted dye in 96 well plate. A calculation of cell viability expressed as NRU was made for each concentration of the test chemical by using the mean NRU of 6 replicate values per test concentration. The cell viability value was compared with the mean NRU of all vehicle control values and relative cell viability was then expressed as percent of untreated vehicle control. […] Although the percentage of viability is slightly more than 95% at 50 μg/ml of IICT-67, 30 μg/ml (% viability of cells is 98%)
With `COc1ccc(C(c2[nH]c3ccccc3c2CC(=O)O)c2[nH]c3ccccc3c2CC(=O)O)cc1Oc1nc(Nc2ccccc2)nc(Nc2ccccc2)n1` [Compound 8, 2,2′-[2,2′-3-(4,6-bis-anilino)-1,3,5-triazin-2-yl-oxy-4-methoxyphenyl]-methylene-bis-(1H-indole-3,3-diyl)-diacetic acid], the “toxicity” value is “potentially non toxic”.
